Legend:
Test in all cases: relative viability (nuclei count vs DMSO), 5 days (fraction); higher = more cells survive
[1] = compound: Nc1ccn([C@@H]2O[C@H](CO)[C@@H](O)C2(F)F)c(=O)n1 [Gemcitabine] + CC(=O)Nc1cccc(-n2c(=O)n(C3CC3)c(=O)c3c(Nc4ccc(I)cc4F)n(C)c(=O)c(C)c32)c1 [Trametinib] (partner 0.02 µM)
Summary of the method: (§1)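 Medians of duplicate plates are given as relative viability. That measure is the nuclei count in treated wells divided by the count in vehicle wells. Counts were taken on 4× images of lung cancer cell lines in 1536-well plates, 5 days after pin-tool dosing the day after seeding with one drug alone or a fixed anchor-drug dose plus five library-drug doses (not always all listed) in √10 steps.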

[2] = compound: Nc1ccn([C@@H]2O[C@H](CO)[C@@H](O)C2(F)F)c(=O)n1 [Gemcitabine] + N=C(N)NC(=N)NCCc1ccccc1 [Phenformin] (partner 250 µM)
Summary of the method: as §1

[3] = compound: Nc1ccn([C@@H]2O[C@H](CO)[C@@H](O)C2(F)F)c(=O)n1 [Gemcitabine] + COc1cccc2cc(-c3nc([C@H]4CC[C@H](C(=O)O)CC4)n4ncnc(N)c34)[nH]c12 [OSI-027] (partner 0.5 µM)
Summary of the method: as §1

[4] = compound: Nc1ccn([C@@H]2O[C@H](CO)[C@@H](O)C2(F)F)c(=O)n1 [Gemcitabine]
Summary of the method: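 Lung cancer cell lines in 1536-well plates were exposed by pinning to five library-drug doses (not always all listed) √10 apart, following an overnight hold at 37 °C. MetaXpress counted Hoechst-stained nuclei from 4× images taken after 5 days without medium change. Viability is the median ratio of treated-well to vehicle-well nuclei across plates. Plates required control CV below 25% and at least one doubling.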

| Cell Line | relative viability ([1]; first compound 0.001 µM) | relative viability ([1]; first compound 0.003162 µM) | relative viability ([1]; first compound 0.01 µM) | relative viability ([1]; first compound 0.03162 µM) | relative viability ([1]; first compound 0.1 µM) | relative viability ([2]; first compound 0.001 µM) | relative viability ([2]; first compound 0.003162 µM) | relative viability ([2]; first compound 0.01 µM) | relative viability ([2]; first compound 0.03162 µM) | relative viability ([2]; first compound 0.1 µM) | relative viability ([3]; first compound 0.001 µM) | relative viability ([3]; first compound 0.003162 µM) | relative viability ([3]; first compound 0.01 µM) | relative viability ([3]; first compound 0.03162 µM) | relative viability ([3]; first compound 0.1 µM) | relative viability ([4]; 0.001 µM) | relative viability ([4]; 0.003162 µM) | relative viability ([4]; 0.01 µM) | relative viability ([4]; 0.03162 µM) | relative viability ([4]; 0.1 µM) |
| --- | --- | --- | --- | --- | --- | --- | --- | --- | --- | --- | --- | --- | --- | --- | --- | --- | --- | --- | --- | --- |
| LOU-NH91 | 0.787 | 0.762 | 0.578 | 0.466 | 0.358 | 0.723 | 0.498 | 0.442 | 0.225 | 0.21 | 0.709 | 0.616 | 0.45 | 0.252 | 0.215 | 0.982 | 0.788 | 0.585 | 0.338 | 0.301 |
| LU99A | 0.575 | 0.635 | 0.563 | 0.594 | 0.387 | 0.857 | 0.949 | 0.805 | 0.801 | 0.789 | 0.275 | 0.348 | 0.307 | 0.304 | 0.286 | 0.864 | 1.08 | 0.932 | 1.01 | 0.918 |
| LXF-289 | 0.644 | 0.683 | 0.611 | 0.205 | 0.147 | 0.517 | 0.445 | 0.263 | 0.0911 | 0.0812 | 0.93 | 0.77 | 0.236 | 0.0894 | 0.105 | 1.01 | 0.977 | 0.826 | 0.206 | 0.123 |
| NCI-H23 | 0.277 | 0.179 | 0.121 | 0.12 | 0.1 | 0.71 | 0.491 | 0.144 | 0.136 | 0.135 | 0.544 | 0.272 | 0.127 | 0.151 | 0.108 | 0.898 | 0.299 | 0.144 | 0.146 | 0.139 |
| NCI-H322M | 0.47 | 0.327 | 0.394 | 0.382 | 0.385 | 0.635 | 0.378 | 0.288 | 0.334 | 0.268 | 0.348 | 0.376 | 0.258 | 0.256 | 0.278 | 0.813 | 0.375 | 0.295 | 0.281 | 0.304 |
| NCI-H358 | 0.11 | 0.107 | 0.0776 | 0.0818 | 0.0722 | 0.291 | 0.22 | 0.101 | 0.0745 | 0.0748 | 0.523 | 0.114 | 0.0702 | 0.0815 | 0.0642 | 0.972 | 0.415 | 0.179 | 0.154 | 0.157 |
| NCI-H1299 | – | – | – | – | – | – | – | – | – | – | – | – | – | – | – | 0.998 | 1.05 | 1 | 1.02 | 1.03 |
| NCI-H1563 | – | – | – | – | – | 0.66 | 0.605 | 0.53 | 0.494 | 0.497 | 0.761 | 0.726 | 0.631 | 0.5 | 0.545 | 0.998 | 0.983 | 0.866 | 0.538 | 0.49 |
| NCI-H1648 | 0.423 | 0.339 | 0.473 | 0.326 | 0.234 | – | – | – | – | – | 0.245 | – | 0.245 | 0.228 | 0.276 | 0.846 | 0.771 | 0.999 | 0.413 | 0.283 |
| NCI-H1703 | – | – | – | – | – | – | – | – | – | – | – | – | – | – | – | 0.699 | 0.264 | 0.138 | 0.126 | 0.115 |

Source: the supplement of paper PMC10307832
